Measurements: patent US20030065039A1, “Biologically active 1,3-bis-aromatic-prop-2-en-1-ones, 1,3-bis-aromatic-propan-1-ones, and 1,3-bis-aromatic-prop-2-yn-1-ones” (Statens Serum Institute, priority 1997, published 2003)
Where two headings read alike, the source gives them in different places.

Tests used:
[1] = system: mouse lymphoma tk; assay: Mouse lymphoma tk assay
From the text: Following selection of SBC-35ma (3,5-dimethoxy-4′-allyloxychalcone) as a development candidate, this compound was studied in vitro using the chromosomal aberration assay with CHO cells and the mouse lymphoma tk assay.
In the screening design, three known drugs were included, namely chloroquine, pyrimethamine and artesunate.

[2] = Preliminary 14 days oral toxicity study in rats; type: in vivo; conditions: highest dose level 1000 mg/kg/day
Method: A preliminary 14 days oral toxicity study in rats was carried out with 6 compounds. Observations included clinical signs, body weights, food intake, haematology, clinical chemistry and macroscopic pathology.

[3] = molecular target: T1, succinate dehydrogenase of Helicobacter pylori (Helicobacter pylori, UniProt O06913); type: biochemical
T1 construct: endogenous in cells; host or cells: Helicobacter pylori (preparation for the SDH measurement not described; sonicate mentioned for FRD)
T1 sequence (O06913 1-714): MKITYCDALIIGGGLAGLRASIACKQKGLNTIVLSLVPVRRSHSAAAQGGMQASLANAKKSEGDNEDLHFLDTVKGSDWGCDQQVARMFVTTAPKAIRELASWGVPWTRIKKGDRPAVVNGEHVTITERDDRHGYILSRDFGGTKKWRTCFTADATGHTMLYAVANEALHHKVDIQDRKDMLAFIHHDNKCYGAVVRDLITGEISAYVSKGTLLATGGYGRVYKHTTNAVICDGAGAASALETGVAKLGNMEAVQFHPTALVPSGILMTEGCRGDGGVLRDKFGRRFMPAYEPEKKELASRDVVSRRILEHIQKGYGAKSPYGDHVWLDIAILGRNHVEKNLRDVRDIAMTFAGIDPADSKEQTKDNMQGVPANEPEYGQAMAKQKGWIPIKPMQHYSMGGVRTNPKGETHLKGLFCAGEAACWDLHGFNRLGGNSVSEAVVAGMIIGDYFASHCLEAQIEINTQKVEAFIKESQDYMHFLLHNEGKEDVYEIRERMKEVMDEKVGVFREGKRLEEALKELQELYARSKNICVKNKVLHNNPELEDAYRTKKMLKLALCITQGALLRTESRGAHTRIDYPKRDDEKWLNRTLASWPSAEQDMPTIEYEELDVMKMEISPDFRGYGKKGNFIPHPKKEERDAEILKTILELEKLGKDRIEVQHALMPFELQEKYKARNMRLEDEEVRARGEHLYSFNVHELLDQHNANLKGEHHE
T1 sequence (O06914 1-245 partner): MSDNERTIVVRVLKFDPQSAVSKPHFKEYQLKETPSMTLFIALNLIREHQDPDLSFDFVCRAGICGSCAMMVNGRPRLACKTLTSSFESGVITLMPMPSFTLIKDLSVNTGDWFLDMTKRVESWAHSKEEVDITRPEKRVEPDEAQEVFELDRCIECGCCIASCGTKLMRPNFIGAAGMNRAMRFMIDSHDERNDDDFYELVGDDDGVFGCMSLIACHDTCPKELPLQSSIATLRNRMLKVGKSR
T1 sequence (O06912 1-255 partner): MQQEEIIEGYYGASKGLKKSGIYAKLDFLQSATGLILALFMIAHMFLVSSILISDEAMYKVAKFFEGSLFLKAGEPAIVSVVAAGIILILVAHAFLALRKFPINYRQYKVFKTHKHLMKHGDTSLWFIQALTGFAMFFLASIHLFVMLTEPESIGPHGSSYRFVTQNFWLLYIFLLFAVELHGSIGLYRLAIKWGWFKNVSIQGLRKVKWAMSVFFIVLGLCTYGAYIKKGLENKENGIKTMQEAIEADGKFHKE

[4] = system: Leishmania promastigotes; assay: Leishmania promastigotes Assay; type: cell-based; conditions: Leishmania; promastigotes, 3H-thymidine uptake; read-out: Leishmania IC50 ± SD
Procedure, shortened: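 L. major (WHO Iran vaccine strain) and L. donovani MHOM/KE/85/NLB 274 promastigotes (3×10^6/ml, day 3 and 6 cultures) exposed to compound 2 h at 26 °C, then 3H-thymidine 18 h; incorporation counted by scintillation. Microscopic counts and flagellar motility also assessed.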

[5] = system: Plasmodium falciparum; assay: Plasmodium falciparum Assay; type: cell-based; conditions: Plasmodium falciparum; 3-H-hypoxanthine incorporation, 48 hours; read-out: Plasmodium IC50 ± SD
Procedure, shortened: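 Parasitized erythrocytes (~1% parasitemia, 5×10^8/ml) cultured 48 h in RPMI with test compound, with 3H-hypoxanthine added for the last 24 h. Growth inhibition read as 3H-hypoxanthine incorporation into parasite DNA by liquid scintillation; uninfected and untreated infected cultures run in parallel.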

[6] = system: human lymphocytes; assay: Lymphocyte Proliferation Assay; type: cell-based; conditions: Lymphocyte; PHA provoked proliferation of human lymphocytes; read-out: Lymphocytes IC50 ± SD
Procedure, shortened: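 Ficoll-isolated human blood mononuclear cells (0.63×10^5/ml) in RPMI 1640 with 5% FCS were cultured in triplicate with test compound and PHA or PPD for 3 or 7 days. Proliferation measured by ^3H-thymidine incorporation over the final 24 h; triplicate median recorded.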

[7] = system: Vero cell cultures; assay: Cytotoxicity in Vero cell cultures; type: cell-based; conditions: Vero cells; values given as fractions, footnote a not given
From the text: (§1) In the following is reported the results from a Vero cell culture infected with different viruses. The cell culture used as well as the methods applied are well known to a person skilled in the art.

[8] = system: Coxsackie virus B4; assay: Antiviral activity in Vero cell cultures; type: cell-based; conditions: Vero cells; values given as fractions
Method: (§2) IC50 values are determined by the virus plaque formation and/or the virus cytopathic assay using standard methods well-known in the art.
as §1

[9] = system: Reovirus-1; assay: Antiviral activity in Vero cell cultures; type: cell-based; conditions: Vero cells; values given as fractions
Method: as §2, §1

[10] = system: Simliki forest virus; assay: Antiviral activity in Vero cell cultures; type: cell-based; conditions: Vero cells; values given as fractions
Method: as §2, §1

[11] = system: Parainfluenza-3 Virus; assay: Antiviral activity in Vero cell cultures; type: cell-based; conditions: Vero cells; values given as fractions
Method: as §2, §1

[12] = system: Sindbis virus; assay: Antiviral activity in Vero cell cultures; type: cell-based; conditions: Vero cells; values given as fractions
Method: as §2, §1

[13] = system: cytomegalovirus AD-169 strain; assay: Activity against cytomegalovirus in HEL cells (plaque formation); type: cell-based; conditions: virus plaque formation reduced by 50%, 100 PFU, values given as fractions
Method: as §2

[14] = system: cytomegalovirus Davis strain; assay: as above; type: cell-based; conditions: virus plaque formation reduced by 50%, 100 PFU, values given as fractions
Method: as §2

[15] = system: human embryonic lung (HEL) cells; assay: Cytotoxicity in human embryonic lung (HEL) cells; type: cell-based; conditions: HEL cell growth reduced by 50%; values given as fractions
[16] = molecular target: T2, Helicobacter pylori fumarate reductase (Helicobacter pylori, UniProt O06913); type: biochemical
T2 construct: Membrane associated proteins were solubilized from the pellet in 150 mM KCl, pH 7.0; endogenous in cells; host or cells: Helicobacter pylori 007 strain; KCl-solubilised fraction (or sonicate supernatant)
T2 sequence (O06913 1-714): T1 sequence (O06913 1-714)
T2 sequence (O06914 1-245 partner): T1 sequence (O06914 1-245 partner)
T2 sequence (O06912 1-255 partner): T1 sequence (O06912 1-255 partner)
Method: 1) Extraction of soluble FRD: Bacteria were harvested by centrifugation at 18,000 g for 10 min at 4° C., and were washed 2 times in an isotonic phosphate saline buffer (50 mM sodium phosphate, pH 7.2, 90 mM NaCl, 5 mM Kcl). Bacteria were lysed in 5 mM Tris-HCl, pH 7.4, for 15 minutes, and centrifuged 18,000 g for 10 minutes. Membrane associated proteins were solubilized from the pellet in 150 mM KCl, pH 7.0, in ice bath for 60 min, and then the supernatant was collected after centrifugation (18,000 g for 10 minutes) for the measurement of FRD activity.
2) Extraction of FRD by sonication: Bacteria were harvested by centrifugation at 18,000 g for 10 min at 4° C., were sonicated, and then the supernatant was collected after centrifugation (18,000 g for 10 minutes) for the measurement of FRD activity.
NADH-FRD activity was determined as the rate of NADH-oxidation upon addition of 1 mM fumarate in the KCl-solubilized fraction or sonicated fraction. The reaction was monitored spectrophotometrically at 340 nm (∈=6.2 mM^−1 cm^−1) using 100 μM NADH and usually 3 mg protein in both reference and sample cuvettes. The measurement was carried out in a Shimadzu UV-190 double-beam spectrophotometer. Protein concentrations were determined using a Bio-Rad protein assay (Bio-Rad Laboratories, 200 Alfred Nobel Dr. Hercules, Calif. 94547, USA).
KCl solubilised fraction of bacteria was incubated with different concentrations of various oxygenated chalcones at 28° C. and the remaining FRD activity was measured. The IC50 values were determined as the concentration at which 50% of the activity was inhibited.

CCc1nc(N)nc(N)c1-c1ccc(Cl)cc1 [pyrimethamine]
mouse lymphoma tk assay, screening design [1]: negative

C=CCOc1ccc(C(=O)/C=C/c2ccc(OC)cc2OC)cc1 [24m4′ac, 2,4-dimethoxy-4′allyloxychalcone]
toxic effects [2]: No toxic effects

O=C(O)/C=C/C(=O)O [Fumarate]
activity of succinate dehydrogenase [3]: concentration-dependent inhibitory effect

COc1ccc(/C=C/C(=O)c2ccc(O)cc2)c(OC)c1 [24m4′hc, 2,4-dimethoxy-4′hydroxychalcone]
IC50 [4]: 48 ± 3 µM
IC50 [5]: 11 µM
toxic effects [2]: No toxic effects
IC50 [6]: 71 ± 5 µM

C=CCOc1ccc(C(=O)/C=C/c2ccc(OC)c(OC)c2)cc1 [34m4′ac, 3,4-dimethoxy-4′-allyloxychalcone]
Minimum Cytotoxic Concentration [7]: <1/100
IC50 [4]: 60 ± 5 µM
IC50 [5]: 32 µM
Minimum inhibitory concentration, Coxsackie virus B4 [8]: 1/60000
Minimum inhibitory concentration, Reovirus-1 [9]: <1/100
Minimum inhibitory concentration, Simliki forest virus [10]: 1/2000
Minimum inhibitory concentration, Parainfluenza-3 Virus [11]: 1/6000
Minimum inhibitory concentration, Sindbis virus [12]: 1/60000
Antiviral activity IC50, AD-169 strain, Assay 1 [13]: <1/30
Antiviral activity IC50, Davis strain, Assay 1 [14]: 1/100
toxic effects [2]: No toxic effects
IC50 [6]: 51 ± 6 µM
Cytotoxicity CC50 [15]: <1/30

O=C(/C=C/c1ccccc1)c1ccc(O)cc1 [4′-OH, 4′-hydroxychalcone]
IC50 [4]: 16 ± 1 µM
IC50 [5]: 21 µM
toxic effects [2]: inconclusive effect
IC50 [6]: 28 ± 1 µM

antimycin [reference compound]
activity of NADH-fumarate reductase [16]: could not inhibit it
activity of succinate dehydrogenase [3]: could no inhibit it

malonate
activity of succinate dehydrogenase [3]: concentration-dependent inhibitory effect

CCN(CC)CCCC(C)Nc1ccnc2cc(Cl)ccc12 (centres unmarked) [Chloroquine, chloroquine]
mouse lymphoma tk assay, screening design ([1]; with S9 mix): questionable negative

C[C@H]1[C@H](OC(=O)CCC(=O)O)O[C@@H]2O[C@@]3(C)CC[C@H]4[C@H](C)CC[C@@H]1[C@@]24OO3 [artesunate]
mouse lymphoma tk assay, screening design [1]: positive

C=CCOc1ccc(C(=O)/C=C/c2cc(OC)c(OC)c(OC)c2)cc1 [3,4,5m4′ac]
Minimum Cytotoxic Concentration [7]: <1/100
Minimum inhibitory concentration, Coxsackie virus B4 [8]: 1/2000
Minimum inhibitory concentration, Reovirus-1 [9]: <1/100
Minimum inhibitory concentration, Simliki forest virus [10]: 1/600
Minimum inhibitory concentration, Parainfluenza-3 Virus [11]: 1/2000
Minimum inhibitory concentration, Sindbis virus [12]: 1/2000
Antiviral activity IC50, AD-169 strain, Assay 1 [13]: 1/150
Antiviral activity IC50, Davis strain, Assay 1 [14]: 1/85
Cytotoxicity CC50 [15]: <1/60
